Results: patent US8791133B2, “Pyridylvinylpyrazoloquinolines as PAR1 inhibitors” (Sanofi, priority 2010, dated 2014)

Molecular target: T1, PAR1 (Homo sapiens, UniProt P25116)
T1 construct: endogenous in cells; host or cells: washed blood platelets from healthy volunteers
T1 sequence (P25116 22-425): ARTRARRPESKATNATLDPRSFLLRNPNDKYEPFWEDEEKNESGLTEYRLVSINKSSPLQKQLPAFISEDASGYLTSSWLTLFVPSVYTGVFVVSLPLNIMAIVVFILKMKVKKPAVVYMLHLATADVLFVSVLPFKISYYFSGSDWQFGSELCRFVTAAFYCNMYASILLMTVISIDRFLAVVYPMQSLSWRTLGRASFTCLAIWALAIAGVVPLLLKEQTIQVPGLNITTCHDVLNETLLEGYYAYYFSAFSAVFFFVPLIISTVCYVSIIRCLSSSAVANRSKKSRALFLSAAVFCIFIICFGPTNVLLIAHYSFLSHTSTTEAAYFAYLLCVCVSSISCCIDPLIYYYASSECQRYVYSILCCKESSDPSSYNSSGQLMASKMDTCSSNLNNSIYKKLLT
Assay: Inhibition of PAR1-mediated platelet aggregation induced by TRAP (thrombin receptor-activating peptide), 96-well format
Assay type: cell-based
Details: washed platelets from healthy volunteers; TRAP as agonist; AUC of kinetics at 650 nm, 37° C., 20 minutes
Method: PAR1 Determination Method: Inhibition of PAR1-Mediated Platelet Aggregation
The pharmacological testing of the substances took place in platelet aggregation induced by TRAP (thrombin receptor-activating peptide) in 96-well format. For this purpose, blood was taken from healthy volunteers in 20 ml syringes containing 2 ml of 3.13% strength sodium citrate solution. After centrifugation at 150×g for 20 minutes, the platelet-rich plasma (PRP) was separated off and mixed with 1 μl of PGE1 solution (500 μg/ml in ethanol)/ml of PRP. Incubation at RT for 5 minutes was followed by centrifugation at 120×g for 15 minutes to remove the leukocytes. The leukocyte-free PRP was transferred in 5 ml portions into 15 ml PP tubes and centrifuged at 360×g for 15 minutes in order to pellet the platelets. The plasma was then decanted off and the platelet sediment from 5 ml of PRP was resuspended in 1 ml of Tyrode's (120 mM NaCl, 2.6 mM KCl, 12 mM NaHCO3, 0.39 mM NaH2PO4×H2O, 10 mM HEPES, 0.35% BSA (Bovine Serum Albumin), 5.5 mM glucose, pH 7.4) and adjusted with Tyrode's to a platelet count of 3×10^5/microliter (μl). 13 μl of this cell suspension were then mixed with 866 μl of 10 mM CaCl2 solution, and 120 μl thereof were pipetted into each well of a 96-well plate containing 15 μl of the substance to be tested. After incubation at RT in the dark for 30 minutes, 15 μl of a TRAP solution (70-100 μM) were added as agonist, and kinetics were recorded at 650 nm in a SpectraMax 340 at 37° C. for 20 minutes while shaking. The areas under the curves of negative control (Tyrode's/DMSO) and positive control (15 μl of agonist/DMSO) were calculated and the difference was fixed as the 100% value. The substances to be tested were pipetted as serial dilutions in duplicate determination, the AUC was likewise determined for each substance concentration, and the % inhibition of the AUC compared with the control was calculated. On the basis of the % inhibition, the IC50 was calculated by nonlinear regression analysis according to the 4-parameter equation.

COCCNC(=O)c1n[nH]c2c1C(/C=C/c1ccc(-c3cccc(F)c3)cn1)C1=C(CC3(CCC3)CC1=O)N2 (stereo not shown) [Example 46]
IC50: 1500 nM

O=C1CC2(CCCC2)CC2=C1C(/C=C/c1ccc(-c3cccc(F)c3)cn1)c1c(C(=O)NC[C@H]3C[C@@H](O)C3)n[nH]c1N2 (stereo partly shown) [Example 38]
IC50: 820 nM

COC(C)(C)CNC(=O)c1n[nH]c2c1C(C=Cc1ccc(-c3cccc(F)c3)cn1)C1=C(CC3(CCCC3)CC1=O)N2 (stereo not shown) [Example 39]
IC50: 450 nM

O=C1CC2(CCCC2)CC2=C1[C@H](/C=C/c1ccc(-c3cccc(F)c3)cn1)c1c(C(=O)NCC3(CO)CC3)n[nH]c1N2 [Example 35]
IC50: 410 nM

CC(C)(CO)CNC(=O)c1n[nH]c2c1C(C=Cc1ccc(-c3cccc(F)c3)cn1)C1=C(CC3(CCCC3)CC1=O)N2 (stereo not shown) [Example 31]
IC50: 380 nM

CC(C)(CN)CNC(=O)c1n[nH]c2c1C(/C=C/c1ccc(-c3cccc(F)c3)cn1)C1=C(CC3(CCCC3)CC1=O)N2 (stereo not shown) [Example 50]
IC50: 910 nM

COCCNC(=O)c1n[nH]c2c1C(/C=C/c1ccc(-c3cccc(F)c3)cn1)C1=C(CC3(CCCC3)CC1=O)N2 (stereo not shown) [Example 43]
IC50: 1200 nM

CC(C)C1CC(=O)C2=C(C1)Nc1[nH]nc(C(=O)NCC3CC3)c1C2/C=C/c1ccc(-c2cccc(F)c2)cn1 (mixture of isomers) [Example 10, 4-{(E)-2-[5-(3-Fluorophenyl)pyridin-2-yl]vinyl}-7-isopropyl-5-oxo-4,5,6,7,8,9-hexahydro-1H-pyrazolo[3,4-b]quinoline-3-cyclopropylmethylcarboxamide]
IC50: 1390 nM

CC1CC(=O)C2=C(C1)Nc1[nH]nc(C(=O)NCC3CC3)c1C2/C=C/c1ccc(-c2cccc(F)c2)cn1 (single isomer, unassigned) [diastereomer 1 from example 13]
IC50: 5120 nM

CC(C)(CO)CNC(=O)c1n[nH]c2c1C(C=Cc1ccc(-c3cccc(F)c3)cn1)C1=C(CC3(CCC3)CC1=O)N2 (stereo not shown) [Example 36]
IC50: 460 nM

CC1(CNC(=O)c2n[nH]c3c2C(/C=C/c2ccc(-c4cccc(F)c4)cn2)C2=C(CC4(CCCC4)CC2=O)N3)COC1 (stereo not shown) [Example 54]
IC50: 840 nM

CN1C2=C(C(=O)CC3(CCCC3)C2)C(/C=C/c2ccc(-c3cccc(F)c3)cn2)c2c(C(=O)NCC(C)(C)C)n[nH]c21 (stereo not shown) [Example 37]
IC50: 710 nM

CC(C)(C)CNC(=O)c1n[nH]c2c1C(/C=C/c1ccc(-c3cccc(F)c3)cn1)C1=C(CC(C)(C)CC1=O)N2 (stereo not shown) [Example 15, 4-{(E)-2-[5-(3-Fluorophenyl)pyridin-2-yl]vinyl}-7,7-dimethyl-5-oxo-4,5,6,7,8,9-hexahydro-1H-pyrazolo[3,4-b]quinoline-3-(2,2-dimethylpropyl)carboxamide]
IC50: 4230 nM

O=C1CC2(CCCC2)CC2=C1C(/C=C/c1ccc(-c3cccc(F)c3)cn1)c1c(C(=O)NC3CCCC3)n[nH]c1N2 (stereo not shown) [Example 47]
IC50: 1400 nM

CC(C)NC(=O)c1n[nH]c2c1C(/C=C/c1ccc(-c3cccc(F)c3)cn1)C1=C(CC(C)(C)CC1=O)N2 (stereo not shown) [Example 8, 4-{(E)-2-[5-(3-Fluorophenyl)pyridin-2-yl]vinyl}-7,7-dimethyl-5-oxo-4,5,6,7,8,9-hexahydro-1H-pyrazolo[3,4-b]quinoline-3-isopropylcarboxamide]
IC50: 1880 nM

O=C1CC2(CCCC2)CC2=C1C(C=Cc1ccc(-c3cccc(F)c3)cn1)c1c(C(=O)NCC3(CO)CCC3)n[nH]c1N2 (stereo not shown) [Example 33]
IC50: < 400 nM
